Results taken from the NIST ThermoML archive (doi:10.1021/je030136n).

Assay: xn = mol fraction of the nth substance listed
Details: Liquid, Pulse-echo method

CCCCCCC [heptane] + CCCO
Details	speed of sound [m/s]
313.15 K, 100 kPa, x2 = 0.1008	1061
313.15 K, 100 kPa, x2 = 0.4992	1074.8
313.15 K, 30400 kPa, x2 = 0.1008	1267.9
313.15 K, 45590 kPa, x2 = 0.4992	1349.9
313.15 K, 60790 kPa, x2 = 0.3008	1416.4
313.15 K, 75990 kPa, x2 = 0.4992	1481.4
313.15 K, 75990 kPa, x2 = 0.7016	1486.3
313.15 K, 91190 kPa, x2 = 0.3008	1539.3
313.15 K, 91190 kPa, x2 = 0.4992	1539.3
313.15 K, 101320 kPa, x2 = 0.4992	1575.5
313.15 K, 111450 kPa, x2 = 0.3008	1611.5
313.15 K, 121580 kPa, x2 = 0.3008	1645.1
313.16 K, 30400 kPa, x2 = 0.7986	1293.2
313.16 K, 91190 kPa, x2 = 0.1008	1543.3
313.16 K, 101320 kPa, x2 = 0.3008	1576.2
313.16 K, 121580 kPa, x2 = 0.4992	1643.3
313.17 K, 100 kPa, x2 = 0.3008	1065
313.17 K, 30400 kPa, x2 = 0.3008	1268.1
313.17 K, 75990 kPa, x2 = 0.3008	1480.3
313.17 K, 111450 kPa, x2 = 0.4992	1610.1
313.17 K, 111450 kPa, x2 = 0.6027	1610
313.17 K, 121580 kPa, x2 = 0.6027	1642.9
313.19 K, 101320 kPa, x2 = 0.1008	1580.6
313.19 K, 111450 kPa, x2 = 0.1008	1616.3
313.19 K, 121580 kPa, x2 = 0.1008	1649.7
313.2 K, 111450 kPa, x2 = 0	1622
313.2 K, 111450 kPa, x2 = 0.7016	1611.6
313.21 K, 101320 kPa, x2 = 0	1586.2
313.22 K, 45590 kPa, x2 = 0.7016	1358.4
313.22 K, 121580 kPa, x2 = 0.7016	1643.9
313.23 K, 30400 kPa, x2 = 0.7016	1284.3
313.23 K, 60790 kPa, x2 = 0.7016	1425.1
313.24 K, 100 kPa, x2 = 0.7016	1095.2
318.08 K, 100 kPa, x2 = 0.7986	1090.8
318.09 K, 75990 kPa, x2 = 0	1475.5
318.09 K, 121580 kPa, x2 = 0.7016	1632.8
318.11 K, 101320 kPa, x2 = 0.7986	1569.1
318.12 K, 45590 kPa, x2 = 0.7986	1351.4
318.12 K, 60790 kPa, x2 = 0.4992	1404.4
318.13 K, 100 kPa, x2 = 0.4992	1054.3
318.13 K, 30400 kPa, x2 = 0.7986	1277.9
318.13 K, 45590 kPa, x2 = 0.4992	1334.8
318.13 K, 111450 kPa, x2 = 0.7986	1602.7
318.13 K, 121580 kPa, x2 = 0.4992	1631.5
318.14 K, 100 kPa, x2 = 0.7016	1076.2
318.14 K, 30400 kPa, x2 = 0.4992	1256.9
318.14 K, 75990 kPa, x2 = 0.7986	1478
318.14 K, 121580 kPa, x2 = 0.7986	1634.8
318.15 K, 30400 kPa, x2 = 0.7016	1268.9
318.15 K, 45590 kPa, x2 = 0.7016	1344.1
318.15 K, 60790 kPa, x2 = 0.6027	1406.9
318.15 K, 60790 kPa, x2 = 0.7016	1411.6
318.15 K, 60790 kPa, x2 = 0.7986	1417.5
318.15 K, 75990 kPa, x2 = 0.1008	1469.4
318.15 K, 91190 kPa, x2 = 0	1535.7
318.15 K, 111450 kPa, x2 = 0.4992	1598
318.16 K, 45590 kPa, x2 = 0.6027	1338.2
318.16 K, 91190 kPa, x2 = 0.7016	1530.2
318.16 K, 91190 kPa, x2 = 0.7986	1533.9
318.16 K, 101320 kPa, x2 = 0.4992	1563
318.16 K, 101320 kPa, x2 = 0.7016	1565.9
318.17 K, 45590 kPa, x2 = 0	1337.4
318.17 K, 60790 kPa, x2 = 0	1409.6
318.17 K, 60790 kPa, x2 = 0.1008	1403.9
318.17 K, 75990 kPa, x2 = 0.7016	1473.2
318.17 K, 91190 kPa, x2 = 0.3008	1526.1
318.17 K, 91190 kPa, x2 = 0.4992	1526.3
318.17 K, 101320 kPa, x2 = 0.1008	1567.7
318.17 K, 111450 kPa, x2 = 0.1008	1603.7
318.17 K, 111450 kPa, x2 = 0.3008	1599
318.17 K, 111450 kPa, x2 = 0.7016	1600
318.17 K, 121580 kPa, x2 = 0	1644.3
318.17 K, 121580 kPa, x2 = 0.1008	1637
318.17 K, 121580 kPa, x2 = 0.3008	1633
318.18 K, 100 kPa, x2 = 0	1044.5
318.18 K, 100 kPa, x2 = 0.1008	1039.7
318.18 K, 15200 kPa, x2 = 0	1163.4
318.18 K, 15200 kPa, x2 = 0.1008	1157.8
318.18 K, 30400 kPa, x2 = 0	1256.5
318.18 K, 75990 kPa, x2 = 0.3008	1466.5
318.18 K, 75990 kPa, x2 = 0.4992	1467.8
318.18 K, 101320 kPa, x2 = 0	1573.6
318.18 K, 101320 kPa, x2 = 0.3008	1563.3
318.18 K, 111450 kPa, x2 = 0	1609.8
318.18 K, 121580 kPa, x2 = 0.6027	1631.3
318.19 K, 30400 kPa, x2 = 0.3008	1251.4
318.19 K, 45590 kPa, x2 = 0.1008	1331.6
318.19 K, 45590 kPa, x2 = 0.3008	1330.8
318.19 K, 60790 kPa, x2 = 0.3008	1401.9
318.2 K, 100 kPa, x2 = 0.6027	1063.5
318.2 K, 30400 kPa, x2 = 0.1008	1250.7
318.2 K, 101320 kPa, x2 = 0.6027	1563.5
318.21 K, 100 kPa, x2 = 0.3008	1043.8
318.21 K, 91190 kPa, x2 = 0.6027	1527.2
318.23 K, 30400 kPa, x2 = 0.6027	1261.4
318.23 K, 111450 kPa, x2 = 0.6027	1598
318.27 K, 75990 kPa, x2 = 0.6027	1469.2
